What was measured:
[1] = set-up: species or system rats; conditions: in vivo
Procedure: The oral bioavailability (OBAV) of Compound 12-1, a bis POM prodrug of Compound 7, was estimated by comparison of the dose-normalized area under the curve (AUC) of the plasma concentration-time profile of Compound 7 following IV and PO administration of Compound 7 and Compound 12-1, respectively, to normal rats.
Method: Groups of non-fasted male SD rats were administered either 5 mg/kg of Compound 7 by IV bolus or 20 mg/kg of Compound 12-1 by oral gavage. Prior to drug administration, the rats were catheterized at the tail artery to facilitate blood collection. Plasma samples were obtained at pre-specified time points following dosing, extracted with 1.5 volumes of methanol, and then assayed by an LC-UV method using a C18 column eluted with a gradient of 20% to 45% v/v acetonitrile in a potassium phosphate buffer pH 6.2 over 15 min with UV absorbance monitoring at 280 nm. The AUC values were determined noncompartmentally from the plasma concentration-time plots by trapezoidal summation to the last measurable time point.
Plasma levels of compound were analyzed by HPLC and the AUCs for the i.v. dose of 5 mg/kg and the p.o. dose of 20 mg/kg were compared. The maximum OBAV for Compound 19-2 was 0.003%. Typically, compounds that are taken forward as an oral drug candidate have OBAV values of at least 15-20%, when tested in an animal model. This minimal requirement for OBAV in a genetically homogenous model system insures that exposure can be accurately monitored when humans are treated with the compound. Furthermore, in a genetically variable background such as humans, the variability for a compound with low OBAV in genetically homogenous model systems, can be widely variable, leading some subjects to have much higher than anticipated exposure, while other subjects have no exposure.

plasma cholesterol = experiment: Cholesterol lowering in hypercholesterolemic rats; type: in vivo; conditions: Rattus norvegicus, po; delivered p.o. (0.5 mg/kg/d); percentage change from pre-dose cholesterol; read-out: % Cholesterol Lowering
[2] = Cardiovascular activity in the Sprague Dawley rat (HR, LV dP/dt, aortic pressure, heart weight); type: in vivo; conditions: SD rats, 7 days
Source text: Method: […] The control group (n=6) was given vehicle only. […] On the 7th day after the start of dosing, animals were anesthetized with Isofluorane and the left ventricle cannulated with a high fidelity catheter tip transducer via the right carotid artery. Left ventricular pressure, its first derivative (LVdP/dt), lead I ECG, and heart rate (HR) triggered off the ECG waveform, were digitally recorded. LV dP/dt is a well accepted measure of ionotropic state. Systolic and diastolic aortic pressures were measured by retracting the catheter into the proximal aorta.

[3] = rat, in vivo, 28 days
Procedure: Compound 18 was administered at doses up to 5 mg/kg/d. Compound cis-13-1 was administered at doses up to 50 mg/kg/d. We reasoned that the ZDF rat, as a metabolically challenged animal model, would be more sensitive to the potential adverse cardiac effects of thyromimetics than a normal, cholesterol-fed rat. At sacrifice, heart rate, and the first derivative of left ventricular pressure (LV dP/dt) were measured with a Millar catheter inserted into the left ventricle.

[4] = Whole animal resting oxygen consumption; type: in vivo, Sprague Dawley rats
Procedure: Thermogenesis is a measurement of energy consumption. Compounds that increase thermogenesis are likely to increase caloric expenditure and thereby cause body weight loss and its associated benefits to metabolic status (e.g., insulin sensitivity). Thermogenesis is assessed in subcellular fractions of various tissues, isolated cells, whole tissues, or in whole animals using changes in oxygen consumption as the endpoint. Oxygen is used up when calories are burned by various metabolic processes. Methods: Animals are dosed once or several times a day via a parenteral or oral route for a treatment period ranging from 1 day to several weeks. Oxygen consumption is measured following a single or multiple days of treatment. In one assay, whole animal oxygen consumption is measured using an indirect calorimeter (Oxymax, Columbus Instruments, Columbus, Ohio). Animals are removed from their cages and placed in the chambers. The resting oxygen consumption is measured in animals during periods of inactivity as measured by activity monitors. The oxygen consumption is calculated based on the flow through the chamber and the difference in oxygen partial pressures at the inflow and outlet ports. Carbon dioxide (CO2) efflux is also measured in parallel using a CO2 electrode. […] Rats were placed in the FoxBox apparatus (Sable Systems, Las Vegas, Nev.), allowed to acclimate and the resting oxygen consumption was measured. The oxygen consumption rates were compared to pre-dose measurements taken on each individual animal. […] Thus, the compounds of the present invention are useful in increasing oxygen consumption.

Glucose in ZDF rats = type: in vivo
Procedure: The decrease was dose dependent. Blood glucose levels at those doses corresponded to 442 mg/dL and 243 mg/dL, respectively. Similar changes were also evident at two weeks, post-treatment.

[5] = target: T1, human thyroid hormone receptors TRα1 (Homo sapiens, UniProt P10827); experiment: Receptor binding to TRα1 (gel filtration and scintillation proximity assay, labeled T3); conditions: SPA data; read-out: Ki TRα
T1 construct: made in house; host or cells: Sf9 insect cells (baculovirus)
T1 sequence (P10827 1-410 isoform P10827-2): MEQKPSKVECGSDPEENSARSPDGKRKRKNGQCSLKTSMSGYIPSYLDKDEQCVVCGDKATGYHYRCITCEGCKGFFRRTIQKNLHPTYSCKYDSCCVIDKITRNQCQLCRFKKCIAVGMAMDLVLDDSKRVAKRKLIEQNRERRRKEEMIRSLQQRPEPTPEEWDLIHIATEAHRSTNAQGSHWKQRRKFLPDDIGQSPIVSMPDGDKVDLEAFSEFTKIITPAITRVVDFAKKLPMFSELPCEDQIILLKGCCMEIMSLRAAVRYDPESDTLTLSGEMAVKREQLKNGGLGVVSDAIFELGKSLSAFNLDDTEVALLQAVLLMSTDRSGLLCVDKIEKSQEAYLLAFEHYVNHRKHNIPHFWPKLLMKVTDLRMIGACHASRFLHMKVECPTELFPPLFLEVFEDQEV
T1 sequence (P19793 1-462 partner): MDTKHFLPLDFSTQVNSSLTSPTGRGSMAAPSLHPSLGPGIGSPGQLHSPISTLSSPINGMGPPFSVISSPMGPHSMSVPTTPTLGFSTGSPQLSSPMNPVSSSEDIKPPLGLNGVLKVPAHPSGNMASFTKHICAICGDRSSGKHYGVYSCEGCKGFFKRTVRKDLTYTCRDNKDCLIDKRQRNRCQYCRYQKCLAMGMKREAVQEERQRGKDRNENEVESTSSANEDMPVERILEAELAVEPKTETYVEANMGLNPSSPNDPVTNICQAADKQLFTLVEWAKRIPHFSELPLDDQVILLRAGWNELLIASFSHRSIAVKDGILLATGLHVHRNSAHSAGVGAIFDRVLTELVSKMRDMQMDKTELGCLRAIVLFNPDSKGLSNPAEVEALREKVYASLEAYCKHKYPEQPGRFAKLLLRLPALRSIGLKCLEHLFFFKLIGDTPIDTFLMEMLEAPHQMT

[6] = target: T2, human thyroid hormone receptors TRβ1 (Homo sapiens, UniProt P10828); experiment: Receptor binding to TRβ1 (gel filtration and scintillation proximity assay, labeled T3); conditions: SPA data; read-out: Ki TRβ
T2 construct: made in house; host or cells: Sf9 insect cells (baculovirus)
T2 sequence (P10828 1-461): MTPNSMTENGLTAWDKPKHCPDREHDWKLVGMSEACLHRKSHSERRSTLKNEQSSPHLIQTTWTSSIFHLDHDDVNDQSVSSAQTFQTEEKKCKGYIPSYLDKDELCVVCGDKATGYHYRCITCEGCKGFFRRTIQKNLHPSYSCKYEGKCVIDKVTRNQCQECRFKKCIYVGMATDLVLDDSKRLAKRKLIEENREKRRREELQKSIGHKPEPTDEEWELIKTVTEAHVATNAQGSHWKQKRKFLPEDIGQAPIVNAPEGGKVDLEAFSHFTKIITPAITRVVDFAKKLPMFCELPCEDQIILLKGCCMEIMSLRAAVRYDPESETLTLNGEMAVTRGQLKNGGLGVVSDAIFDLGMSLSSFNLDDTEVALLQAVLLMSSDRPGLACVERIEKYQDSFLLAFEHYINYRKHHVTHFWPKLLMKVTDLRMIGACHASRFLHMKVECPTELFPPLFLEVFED
T2 sequence (P19793 1-462 partner): T1 sequence (P19793 1-462 partner)

Row | SMILES | OBAV when AUC's of Compound cis-13-1 are used ([1]; rat) [%] | OBAV when comparing the AUC's of Compound 7 ([1]; rat) | change in vivo at 0.5 mg/kg/day (plasma cholesterol) [%] | HR, LV dP/dt, systolic and diastolic aortic pressures ([2]; oral gavage 1, 5, 10, 30, 50 mg/kg/day) | heart weight or heart weight/body weight ratios ([2]; oral gavage 1-50 mg/kg/day) | TI Improvement over Compound 18, ED15 HR ([3]; ZDF) | TI Improvement over Compound 18, ED25 LV dP/dt ([3]; ZDF) | calculated TI with respect to LV dP/dt [3] | calculated TI with respect to heart rate [3] | Oxygen consumption following treatment, % of the pre-dose rate ([4]; 3 mg/kg/d orally for 14 days) [%] | Oxygen consumption following treatment, % of the pre-dose rate ([4]; 10 mg/kg/d orally for 14 days) [%] | Oxygen consumption following treatment, % of the pre-dose rate ([4]; 30 mg/kg/d orally for 14 days) [%] | water consumption (Glucose in ZDF rats) | Plasma glucose at sacrifice (Glucose in ZDF rats; 4 weeks of treatment, decreased from 618 mg/dL) [mg/dL] | Blood glucose levels (Glucose in ZDF rats; 4 weeks of treatment, versus 442 mg/dL) [mg/dL] | absorption in the rat ([1]; po) | Ki [5] [µM] | Ki [6] [µM]
1 | Cc1cc(OC[P@@]2(=O)OCC[C@@H](c3cccc(Cl)c3)O2)cc(C)c1Cc1ccc(O)c(C(C)C)c1 [Compound cis-13-1] | 25 | 40-50% | -31.8 | not significantly different compared to vehicle treated animals | no significant changes in heart weight | >39 | >102 | > 10,000 | > 3900 | 116 | 125 | 132 | dose-dependent decrease in the water consumption | 437 | 243 | – | – | –
2 | Cc1cc(OCP(=O)(OCOC(=O)C(C)(C)C)OCOC(=O)C(C)(C)C)cc(C)c1Cc1ccc(O)c(C(C)C)c1 [Compound 12-1, di(pivaloyloxymethyl) [3,5-Dimethyl-4-(4′-hydroxy-3′-iso-propylbenzyl)phenoxy]methylphosphonate] | – | – | – | – | – | – | – | – | – | – | – | – | – | – | – | adequately absorbed | 1.67 | 0.662

— patent US20090028925A1, “Novel Phosphinic Acid-Containing Thyromimetics” (priority 2005, published 2009)
